What all share (format): in vivo
The subject of one assay is Blattella germanica. Briefly: Test Example 1: spray knockdown test on Blattella germanica. The conditions noted are these: 0.25 h; 2.0% w/v in isopropyl alcohol/kerosine=1/9, 1.5 mL sprayed, ten Blattella germanica, within 15 minutes; read-out: knockdown ratio of test vermin within 15 minutes. As for the experimental part:
A formulation containing each of the compounds (1), (3), (4), (5), (8), (11), (12) and (21) prepared in accordance with Formulation Example 7 was diluted with an isopropyl alcohol/kerosine=1/9 mixed liquid so that the concentration of each compound became 2.0% w/v, to obtain a diluted solution. Ten vermin Blattella germanica (male female each five vermin) were allowed to release in a container for a test in which a butter was applied on an inner wall (diameter 8.75 cm, height 7.5 cm, bottom face covered with 16 mesh wire net), and the container was arranged on a bottom of a chamber for a test (bottom surface: 46 cm×46 cm, height: 70 cm). From a height of 60 cm from an upper surface of the container, 1.5 mL of the diluted solution was sprayed using a spray gun (spraying pressure 0.42 kg/cm^2). Thirty seconds after spraying, the container was taken out from the chamber for a test, the number of vermin which had been knocked down was counted for 15 minutes with time, and a knockdown ratio was obtained. The knockdown ratio was calculated by the following expression. Knockdown ratio (%)=(number of knocked down vermin/number of test vermin)×100 As a result, the knockdown ratio of test vermin within 15 minutes was 80% or more, in treatment with the compounds (1), (3), (4), (5), (8), (11), (12) and (21), respectively.

In the next assay the test system is Aphis gossypii. Briefly: Test Example 5: foliar spray test on Aphis gossypii on cucumber. The conditions noted are these: 500 ppm diluted solution, 20 mL/cup sprayed to cucumber, six days after spraying. As for the experimental part: A formulation containing the compound (4) prepared in accordance with Formulation Example 15 was diluted with water so that the concentration became 500 ppm to obtain a diluted solution. On the other hand, a cucumber was planted in a polyethylene cup, and grown until a first true leaf developed. About 20 vermin of Aphis gossypii was parasitized therein. After one day, the diluted solution was sprayed to the cucumber at a ratio of 20 mL/cup. Six days after spraying, the number of live or dead vermin of Aphis gossypii was investigated, and a controlling value was obtained by the following expression. Controlling value (%)={1−(Cb×Tai)/(Cai×Tb)}×100 In addition, letters in the expression indicate the following meanings.

A further assay relates to Plutella xylostella. The assay is described as follows: Test Example 6: cabbage foliar spray test on second instar larvae of Plutella xylostella. The conditions noted are these: 500 ppm diluted solution, 20 mL/cup sprayed to cabbage, 25° C., after 5 days. As for the experimental part:
A formulation containing the compound (21) prepared in accordance with Formulation Example 15 was diluted with water so that the concentration became 500 ppm, to prepare a diluted solution. On the other hand, the diluted solution was sprayed to a cabbage at a stage of three leaves planted in a polyethylene cup at a ratio of 20 mL/cup. After spraying, the plant was air-dried, foliage portions were cut and accommodated into a 50 mL cup, 5 second instar larvae of Plutella xylostella were released, and the cup was covered. This was stored at 25° C., and after 5 days, the number of dead vermin was counted, and a dead vermin ratio was obtained by the following expression.

In the case of `CC(C)CNC(=O)c1cc(COCc2ccccc2)on1` [compound (1)], the pest or weed control at 2 % strength in the assay on Blattella germanica is at least 80%.
The same measure, in the same setting: under `C=C(C)CNC(=O)c1cc(COCc2ccccc2)on1` [compound (3)] stands at least 80%.
As for `COC(C)CNC(=O)c1cc(COCc2ccccc2)on1` (stereo not shown) [compound (4)], the controlling value with Aphis gossypii is given as at least 90%. The pest or weed control at 2 % strength in the assay on Blattella germanica is at least 80%.
As for `COCCNC(=O)c1cc(COCc2ccccc2)on1` [compound (5)], the pest or weed control at 2 % strength in the assay on Blattella germanica was at least 80%.
The same measure, in the same setting: under `COC(C)(C)CNC(=O)c1cc(COCc2ccccc2)on1` [compound (8)] stands at least 80%.
Same read-out and setting: under `COC(CNC(=O)c1cc(COCc2ccccc2)on1)OC` [compound (11)] stands at least 80%; under `COCC(COC)NC(=O)c1cc(COCc2ccccc2)on1` [compound (12)], at least 80%.
As to `COC(C)CNC(=O)c1cc(COCc2ccc3ccccc3c2)on1` (stereo not shown) [compound (21)], the dead vermin ratio in the assay with Plutella xylostella is reported as at least 80%. Also, in the assay on Blattella germanica, the pest or weed control at 2 % strength was at least 80%.

Source of the values: US10251396B2, “Amide compound and use of same for noxious arthropod control” (SUMITOMO CHEMICAL COMPANY, LIMITED, priority 2014, dated 2019).
